Assay results: ChEMBL document CHEMBL4028817, “Indole-TEMPO conjugates alleviate ischemia-reperfusion injury via attenuation of oxidative stress and preservation of mitochondrial function” (Bioorg Med Chem, 2017)
Calls of active or inactive are those of the source. The calls are words filed in the database; no cut-off is given here.

What was measured:
Mus musculus [1] = assay: Anti-inflammatory activity in ICR mouse assessed as inhibition of xylene induced ear edema at 0.10 mmol/kg pretreated orally for 30 mins followed by xylene challenge measured after 2 hrs relative to control; assay type: functional; settings: po
Mus musculus [2] = assay: Anti-inflammatory activity in xylene induced ICR mouse ear edema model assessed as edema weight at 0.10 mmol/kg, po pretreated 30 mins followed by xylene challenge measured after 2 hrs (reference value: 4.07 +/- 0.51 mg); assay type: functional
Mus musculus [3] = assay: Toxicity in mouse assessed as tail bleeding time at 0.50 mmol/kg, po administered 30 mins prior to tail transection measured every 30 secs (reference value: 120.5 +/- 7.9 sec); assay type: organism-based; settings: in vivo
Mus musculus [4] = assay: Toxicity in mouse assessed as tail bleeding time at 0.50 mmol/kg, po administered 45 mins prior to tail transection measured every 30 secs (reference value: 119.8 +/- 8.4 sec); assay type: organism-based; settings: in vivo
Mus musculus [5] = assay: Toxicity in mouse assessed as tail bleeding time at 0.50 mmol/kg, po administered 60 mins prior to tail transection measured every 30 secs (reference value: 120.4 +/- 7.9 sec); assay type: organism-based; settings: in vivo
Mus musculus [6] = assay: Toxicity in mouse assessed as tail bleeding time at 0.50 mmol/kg, po administered 90 mins prior to tail transection measured every 30 secs (reference value: 119.3 +/- 7.7 sec); assay type: organism-based; settings: in vivo
HUVEC = assay: Protection against simulated ischemia/reperfusion injury-induced cell death in HUVEC assessed as increase in cell viability at 30 ug/ml treated for 12 hrs under normoxic condition prior to simulated ischemia for 2 hrs followed by compound washout measured 3 hrs post reperfusion; assay type: functional, cell-based; settings: Homo sapiens
Mus musculus [7] = assay: Anti-inflammatory activity in ICR mouse assessed as inhibition of xylene induced ear edema pretreated orally for 30 mins followed by xylene challenge measured after 2 hrs; assay type: functional
Rattus norvegicus [8] = assay: Protection against ischemia/reperfusion-induced Wistar rat intestinal injury model assessed as reduction in lipid peroxidation by measuring lipid peroxide levels at 30 mg/kg administered as bolus dose pretreated for 5 mins followed by 12 hrs reperfusion and subsequent compound addition at 10 mg/kg administered at 1 hr interval during reperfusion period measured at 1.5 to 12 hrs post reperfusion by spectrophotometric method; assay type: functional, organism-based
Rattus norvegicus [9] = assay: Protection against ischemia/reperfusion-induced Wistar rat intestinal injury model assessed as effect on TNFalpha levels at 30 mg/kg administered as bolus dose pretreated for 5 mins followed by 12 hrs reperfusion and subsequent compound addition at 10 mg/kg administered at 1 hr interval during reperfusion period by ELISA (reference value: 62.9 +/- 8.7 pg/ml); assay type: functional

CC1(C)CC(n2cc(CNC(=O)[C@@H](Cc3c[nH]c4ccccc34)NC(=O)[C@@H]3Cc4c([nH]c5ccccc45)CN3C(=O)[C@@H]3Cc4c([nH]c5ccccc45)CN3)nn2)CC(C)(C)N1[O]
inhibition in vivo at 100 µmol/kg (Mus musculus [1]): 50.4%
Activity (Mus musculus [2]): 2.02 mg
Time (Mus musculus [3]): 119.4 s
Time (Mus musculus [4]): 120.3 s
Time (Mus musculus [5]): 121.8 s
Time (Mus musculus [6]): 117.3 s

C[C@@H](NC(=O)[C@@H]1Cc2c([nH]c3ccccc23)CN1C(=O)[C@@H]1Cc2c([nH]c3ccccc23)CN1)C(=O)NCc1cn(C2CC(C)(C)N([O])C(C)(C)C2)nn1
inhibition in vivo at 100 µmol/kg (Mus musculus [1]): 32.9%
Activity (Mus musculus [2]): 2.73 mg
Time (Mus musculus [3]): 119.6 s
Time (Mus musculus [4]): 115.3 s
Time (Mus musculus [5]): 117.7 s
Time (Mus musculus [6]): 119.8 s

CC1(C)CC(n2cc(CNC(=O)[C@H]3CCCN3C(=O)[C@@H]3Cc4c([nH]c5ccccc45)CN3C(=O)[C@@H]3Cc4c([nH]c5ccccc45)CN3)nn2)CC(C)(C)N1[O]
inhibition in vivo at 100 µmol/kg (Mus musculus [1]): 43.2%
Activity (Mus musculus [2]): 2.31 mg
Time (Mus musculus [3]): 119.9 s
Time (Mus musculus [4]): 119.5 s
Time (Mus musculus [5]): 121.4 s
Time (Mus musculus [6]): 119.7 s

CC1(C)CC(n2cc(CNC(=O)[C@@H](CCC(N)=O)NC(=O)[C@@H]3Cc4c([nH]c5ccccc45)CN3C(=O)[C@@H]3Cc4c([nH]c5ccccc45)CN3)nn2)CC(C)(C)N1[O]
inhibition in vivo at 100 µmol/kg (Mus musculus [1]): 47.7%
Activity (Mus musculus [2]): 2.13 mg
Time (Mus musculus [3]): 117.4 s
Time (Mus musculus [4]): 119.6 s
Time (Mus musculus [5]): 120.6 s
Time (Mus musculus [6]): 119.3 s

CC1(C)CC(n2cc(CNC(=O)[C@@H](CCCNC(=N)N([N+](=O)[O-])[N+](=O)[O-])NC(=O)[C@@H]3Cc4c([nH]c5ccccc45)CN3C(=O)[C@@H]3Cc4c([nH]c5ccccc45)CN3)nn2)CC(C)(C)N1[O]
inhibition in vivo at 100 µmol/kg (Mus musculus [1]): 63.1%
Activity (Mus musculus [2]): 1.5 mg
Time (Mus musculus [3]): 121.8 s
Time (Mus musculus [4]): 120.2 s
Time (Mus musculus [5]): 119.8 s
Time (Mus musculus [6]): 119.7 s
Activity (HUVEC): Active
inhibition (Mus musculus [7]): Dose-dependent effect

C[C@@H](O)[C@@H](NC(=O)[C@@H]1Cc2c([nH]c3ccccc23)CN1C(=O)[C@@H]1Cc2c([nH]c3ccccc23)CN1)C(=O)NCc1cn(C2CC(C)(C)N([O])C(C)(C)C2)nn1
inhibition in vivo at 100 µmol/kg (Mus musculus [1]): 47.2%
Activity (Mus musculus [2]): 2.15 mg
Time (Mus musculus [3]): 116.9 s
Time (Mus musculus [4]): 117.3 s
Time (Mus musculus [5]): 118.5 s
Time (Mus musculus [6]): 117.4 s

CC1(C)CC(n2cc(CNC(=O)CNC(=O)[C@@H]3Cc4c([nH]c5ccccc45)CN3C(=O)[C@@H]3Cc4c([nH]c5ccccc45)CN3)nn2)CC(C)(C)N1[O]
inhibition in vivo at 100 µmol/kg (Mus musculus [1]): 34.7%
Activity (Mus musculus [2]): 2.65 mg
Time (Mus musculus [3]): 117.7 s
Time (Mus musculus [4]): 114.5 s
Time (Mus musculus [5]): 116.4 s
Time (Mus musculus [6]): 115.8 s

CC1(C)CC(n2cc(CNC(=O)[C@@H](CO)NC(=O)[C@@H]3Cc4c([nH]c5ccccc45)CN3C(=O)[C@@H]3Cc4c([nH]c5ccccc45)CN3)nn2)CC(C)(C)N1[O]
inhibition in vivo at 100 µmol/kg (Mus musculus [1]): 40.5%
Activity (Mus musculus [2]): 2.42 mg
Time (Mus musculus [3]): 121.1 s
Time (Mus musculus [4]): 119.7 s
Time (Mus musculus [5]): 122.5 s
Time (Mus musculus [6]): 118.6 s

CC(C)[C@@H](NC(=O)[C@@H]1Cc2c([nH]c3ccccc23)CN1C(=O)[C@@H]1Cc2c([nH]c3ccccc23)CN1)C(=O)NCc1cn(C2CC(C)(C)N([O])C(C)(C)C2)nn1
inhibition in vivo at 100 µmol/kg (Mus musculus [1]): 36.6%
Activity (Mus musculus [2]): 2.58 mg
Time (Mus musculus [3]): 116.4 s
Time (Mus musculus [4]): 119.3 s
Time (Mus musculus [5]): 120.4 s
Time (Mus musculus [6]): 118.7 s

CC1(C)CC(n2cc(CNC(=O)[C@@H](CC(N)=O)NC(=O)[C@@H]3Cc4c([nH]c5ccccc45)CN3C(=O)[C@@H]3Cc4c([nH]c5ccccc45)CN3)nn2)CC(C)(C)N1[O]
inhibition in vivo at 100 µmol/kg (Mus musculus [1]): 56.3%
Activity (Mus musculus [2]): 1.78 mg
Time (Mus musculus [3]): 119.7 s
Time (Mus musculus [4]): 118.4 s
Time (Mus musculus [5]): 119.5 s
Time (Mus musculus [6]): 119.2 s
Activity (HUVEC): Active
inhibition (Mus musculus [7]): Dose-dependent effect

CC1(C)CC(n2cc(CNC(=O)[C@@H](Cc3ccccc3)NC(=O)[C@@H]3Cc4c([nH]c5ccccc45)CN3C(=O)[C@@H]3Cc4c([nH]c5ccccc45)CN3)nn2)CC(C)(C)N1[O]
inhibition in vivo at 100 µmol/kg (Mus musculus [1]): 45.9%
Activity (Mus musculus [2]): 2.2 mg
Time (Mus musculus [3]): 119.4 s
Time (Mus musculus [4]): 119.1 s
Time (Mus musculus [5]): 117.6 s
Time (Mus musculus [6]): 119 s

CSCC[C@@H](NC(=O)[C@@H]1Cc2c([nH]c3ccccc23)CN1C(=O)[C@@H]1Cc2c([nH]c3ccccc23)CN1)C(=O)NCc1cn(C2CC(C)(C)N([O])C(C)(C)C2)nn1
inhibition in vivo at 100 µmol/kg (Mus musculus [1]): 43.5%
Activity (Mus musculus [2]): 2.3 mg
Time (Mus musculus [3]): 119.3 s
Time (Mus musculus [4]): 118.4 s
Time (Mus musculus [5]): 119.6 s
Time (Mus musculus [6]): 117.9 s

CC1(C)CC(n2cc(CNC(=O)[C@@H](Cc3c[nH]cn3)NC(=O)[C@@H]3Cc4c([nH]c5ccccc45)CN3C(=O)[C@@H]3Cc4c([nH]c5ccccc45)CN3)nn2)CC(C)(C)N1[O]
inhibition in vivo at 100 µmol/kg (Mus musculus [1]): 48.6%
Activity (Mus musculus [2]): 2.09 mg
Time (Mus musculus [3]): 119 s
Time (Mus musculus [4]): 120.5 s
Time (Mus musculus [5]): 119.5 s
Time (Mus musculus [6]): 118 s

CC1(C)CC(O)CC(C)(C)N1[O] [TEMPOL]
Activity (Rattus norvegicus [8]): Active
Activity (Rattus norvegicus [9]): 25.2 pg/mL

CC[C@@H](C)[C@@H](NC(=O)[C@@H]1Cc2c([nH]c3ccccc23)CN1C(=O)[C@@H]1Cc2c([nH]c3ccccc23)CN1)C(=O)NCc1cn(C2CC(C)(C)N([O])C(C)(C)C2)nn1
inhibition in vivo at 100 µmol/kg (Mus musculus [1]): 44.7%
Activity (Mus musculus [2]): 2.25 mg
Time (Mus musculus [3]): 119.7 s
Time (Mus musculus [4]): 117.5 s
Time (Mus musculus [5]): 116.1 s
Time (Mus musculus [6]): 121.7 s

CC1(C)CC(n2cc(CNC(=O)[C@@H](Cc3ccc(O)cc3)NC(=O)[C@@H]3Cc4c([nH]c5ccccc45)CN3C(=O)[C@@H]3Cc4c([nH]c5ccccc45)CN3)nn2)CC(C)(C)N1[O]
inhibition in vivo at 100 µmol/kg (Mus musculus [1]): 60%
Activity (Mus musculus [2]): 1.63 mg
Time (Mus musculus [3]): 117.2 s
Time (Mus musculus [4]): 118 s
Time (Mus musculus [5]): 117.5 s
Time (Mus musculus [6]): 118.6 s
Activity (HUVEC): Active
inhibition (Mus musculus [7]): Dose-dependent effect

CC1(C)CC(n2cc(CNC(=O)[C@@H](CCCCN)NC(=O)[C@@H]3Cc4c([nH]c5ccccc45)CN3C(=O)[C@@H]3Cc4c([nH]c5ccccc45)CN3)nn2)CC(C)(C)N1[O]
inhibition in vivo at 100 µmol/kg (Mus musculus [1]): 57%
Activity (Mus musculus [2]): 1.75 mg
Time (Mus musculus [3]): 121.4 s
Time (Mus musculus [4]): 119.8 s
Time (Mus musculus [5]): 120.5 s
Time (Mus musculus [6]): 118.5 s
Activity (HUVEC): Active
inhibition (Mus musculus [7]): Dose-dependent effect

CC(C)C[C@@H](NC(=O)[C@@H]1Cc2c([nH]c3ccccc23)CN1C(=O)[C@@H]1Cc2c([nH]c3ccccc23)CN1)C(=O)NCc1cn(C2CC(C)(C)N([O])C(C)(C)C2)nn1
inhibition in vivo at 100 µmol/kg (Mus musculus [1]): 47%
Activity (Mus musculus [2]): 2.16 mg
Time (Mus musculus [3]): 121 s
Time (Mus musculus [4]): 120.7 s
Time (Mus musculus [5]): 119.8 s
Time (Mus musculus [6]): 119.1 s
